Results as given in patent EP4603105A1, “PHARMACEUTICAL COMPOSITION CONTAINING CYCLIC COMPOUND HAVING SELECTIVE KRAS INHIBITORY EFFECT AGAINST HRAS AND NRAS” (CHUGAI SEIYAKU KABUSHIKI KAISHA, priority 2022, dated 2024).

Experiments:
[1] = target: GDP-bound NRAS wild-type protein (Homo sapiens, UniProt P01111); assay: Binding to NRAS by surface plasmon resonance (SPR), KD and KD ratio to KRAS; conditions: ratio of the KD value with respect to GDP-bound NRAS wild-type protein to the KD value with respect to KRAS
How it was run: (§1)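 Captured GDP-RAS (~100–300 RU) was exposed to increasing compound concentrations, 75 s per step, in running buffer with 10 µM GDP, 10 mM MgCl2 and 4% DMSO at pH 7.4.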

HRAS wild-type protein = HRAS wild-type protein (Homo sapiens, UniProt P01112); assay: Binding to HRAS by surface plasmon resonance (SPR), KD and KD ratio to KRAS; conditions: ratio of the KD value with respect to HRAS wild-type protein to the KD value with respect to KRAS
How it was run: as §1

[2] = tested on: human lung cancer strain NCI-H441; type: cell-based
How it was run: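 Step one: dispense the test compound in serial DMSO dilutions. Step three: add the reagent and measure […].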

Chain of GDP-bound NRAS wild-type protein (P01111 whole entry): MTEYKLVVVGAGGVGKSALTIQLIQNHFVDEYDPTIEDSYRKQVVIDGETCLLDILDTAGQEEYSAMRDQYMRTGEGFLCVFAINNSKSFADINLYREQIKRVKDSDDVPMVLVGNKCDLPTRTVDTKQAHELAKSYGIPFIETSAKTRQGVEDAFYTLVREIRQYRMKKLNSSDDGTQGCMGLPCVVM
Chain of HRAS wild-type protein (P01112 whole entry): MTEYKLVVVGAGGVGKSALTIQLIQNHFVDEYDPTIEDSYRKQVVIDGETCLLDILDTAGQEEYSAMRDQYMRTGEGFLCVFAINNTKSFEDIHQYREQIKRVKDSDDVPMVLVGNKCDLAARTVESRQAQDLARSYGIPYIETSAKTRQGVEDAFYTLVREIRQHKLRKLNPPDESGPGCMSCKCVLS

## CCO[C@@H]1C[C@H]2C(=O)NC3(CC(C)(C)C3)C(=O)N(C)[C@@H](C3CCCC3)C(=O)N(C)[C@H](C(=O)N(C)CC)CC(=O)N(C)[C@@H](C(C)C)C(=O)N[C@@H]([C@@H](C)CC)C(=O)N(C)CC(=O)N(C)[C@H]3C/C=C\CCN(C3=O)[C@@H](Cc3ccc(C(F)(F)F)cc3)C(=O)N(C)CC(=O)N[C@@H](CCc3cc(F)c(C(F)(F)F)c(F)c3)C(=O)N2C1 [PP2034]
[1]
  NRAS /KRAS: A (a compound having 10 or more and less than 20 is denoted as A)
HRAS wild-type protein
  HRAS /KRAS: A (a compound having 10 or more and less than 20 is denoted as A)
[2]
  IC50: 8.8 nM

## CCO[C@@H]1C[C@H]2C(=O)NC3(CC(C)(C)C3)C(=O)N(C)[C@@H](C3CCCC3)C(=O)N(C)[C@H](C(=O)N(C)CC)CC(=O)N(C)[C@@H](C3CC3)C(=O)N[C@@H]([C@@H](C)CC)C(=O)N(C)CC(=O)N(C)[C@H]3C/C=C\CCN(C3=O)[C@@H](Cc3ccc(C(F)(F)F)cc3)C(=O)N(C)CC(=O)N[C@@H](CCc3cc(F)c(C(F)(F)F)c(F)c3)C(=O)N2C1 [PP2036]
[1]
  NRAS /KRAS: A (a compound having 10 or more and less than 20 is denoted as A)
HRAS wild-type protein
  HRAS /KRAS: A (a compound having 10 or more and less than 20 is denoted as A)
[2]
  IC50: 9.1 nM

## CCO[C@@H]1C[C@H]2C(=O)NC3(CC(C)(C)C3)C(=O)N(C)[C@@H](C3CCCC3)C(=O)N(C)[C@H](C(=O)N(C)CC)CC(=O)N(C)[C@@H](C3CCC3)C(=O)N[C@@H]([C@@H](C)CC)C(=O)N(C)CC(=O)N(C)[C@H]3C/C=C\CCN(C3=O)[C@@H](Cc3ccc(C(F)(F)F)cc3)C(=O)N(C)CC(=O)N[C@@H](CCc3cc(F)c(C(F)(F)F)c(F)c3)C(=O)N2C1 [PP2038]
[1]
  NRAS /KRAS: A (a compound having 10 or more and less than 20 is denoted as A)
HRAS wild-type protein
  HRAS /KRAS: A (a compound having 10 or more and less than 20 is denoted as A)
[2]
  IC50: 5.5 nM

## CCCN(C)C(=O)[C@@H]1CC(=O)N(C)[C@@H](CC(F)F)C(=O)N[C@@H]([C@@H](C)CC)C(=O)N(C)CC(=O)N(C)[C@H]2C/C=C\CCN(C2=O)[C@@H](Cc2ccc(C(F)(F)F)cc2)C(=O)N(C)CC(=O)N[C@@H](CCc2cc(F)c(C(F)(F)F)c(F)c2)C(=O)N2C[C@@H](C)C[C@H]2C(=O)NC2(CC(C)(C)C2)C(=O)N(C)[C@@H](C2CCCC2)C(=O)N1C [PP2040]
[1]
  NRAS /KRAS: A (a compound having 10 or more and less than 20 is denoted as A)
HRAS wild-type protein
  HRAS /KRAS: A (a compound having 10 or more and less than 20 is denoted as A)
[2]
  IC50: 10.5 nM

## CCCN(C)C(=O)[C@@H]1CC(=O)N(C)[C@@H](COCC)C(=O)N[C@@H]([C@@H](C)CC)C(=O)N(C)CC(=O)N(C)[C@H]2C/C=C\CCN(C2=O)[C@@H](Cc2ccc(C(F)(F)F)cc2)C(=O)N(C)CC(=O)N[C@@H](CCc2cc(F)c(C(F)(F)F)c(F)c2)C(=O)N2C[C@@H](C)C[C@H]2C(=O)NC2(CC(C)(C)C2)C(=O)N(C)[C@@H](C2CCCC2)C(=O)N1C [PP2041]
[1]
  NRAS /KRAS: A (a compound having 10 or more and less than 20 is denoted as A)
HRAS wild-type protein
  HRAS /KRAS: A (a compound having 10 or more and less than 20 is denoted as A)
[2]
  IC50: 7.7 nM

## CCOC[C@H]1C(=O)N[C@@H]([C@@H](C)CC)C(=O)N(C)CC(=O)N(C)[C@H]2C/C=C\CCN(C2=O)[C@@H](Cc2ccc(C(F)(F)F)cc2)C(=O)N(C)CC(=O)N[C@@H](CCc2cc(F)c(C(F)(F)F)c(F)c2)C(=O)N2C[C@@H](C)C[C@H]2C(=O)NC2(CC(C)(C)C2)C(=O)N(C)[C@@H](C2CCCC2)C(=O)N(C)[C@H](C(=O)N(C)CC)CC(=O)N1C [PP2042]
[1]
  NRAS /KRAS: A (a compound having 10 or more and less than 20 is denoted as A)
HRAS wild-type protein
  HRAS /KRAS: A (a compound having 10 or more and less than 20 is denoted as A)
[2]
  IC50: 5.9 nM

## CCCOC[C@H]1C(=O)N[C@@H]([C@@H](C)CC)C(=O)N(C)CC(=O)N(C)[C@H]2C/C=C\CCN(C2=O)[C@@H](Cc2ccc(C(F)(F)F)cc2)C(=O)N(C)CC(=O)N[C@@H](CCc2cc(F)c(C(F)(F)F)c(F)c2)C(=O)N2C[C@@H](C)C[C@H]2C(=O)NC2(CC(C)(C)C2)C(=O)N(C)[C@@H](C2CCCC2)C(=O)N(C)[C@H](C(=O)N(C)CC)CC(=O)N1C [PP2043]
[1]
  NRAS /KRAS: A (a compound having 10 or more and less than 20 is denoted as A)
HRAS wild-type protein
  HRAS /KRAS: A (a compound having 10 or more and less than 20 is denoted as A)
[2]
  IC50: 28 nM

## CCO[C@@H]1C[C@H]2C(=O)NC3(CC(C)(C)C3)C(=O)N(C)[C@@H](C3CCCC3)C(=O)N(C)[C@H](C(=O)N(C)CC)CC(=O)N(C)[C@@H](CC(C)C)C(=O)N[C@@H]([C@@H](C)CC)C(=O)N(C)CC(=O)N(C)[C@H]3C/C=C\CCN(C3=O)[C@@H](Cc3ccc(C(F)F)cc3)C(=O)N(C)CC(=O)N[C@@H](CCc3cc(F)c(C(F)(F)F)c(F)c3)C(=O)N2C1 [PP2046]
[1]
  NRAS /KRAS: A (a compound having 10 or more and less than 20 is denoted as A)
HRAS wild-type protein
  HRAS /KRAS: A (a compound having 10 or more and less than 20 is denoted as A)
[2]
  IC50: 2.2 nM

## CCO[C@@H]1C[C@H]2C(=O)NC3(CC(C)(C)C3)C(=O)N(C)[C@@H](C3CCCC3)C(=O)N(C)[C@H](C(=O)N(C)C)CC(=O)N(C)[C@@H](CC)C(=O)N[C@@H]([C@@H](C)CC)C(=O)N(C)CC(=O)N(C)[C@H]3C/C=C\CCN(C3=O)[C@@H](Cc3ccc(Cl)cc3F)C(=O)N(C)CC(=O)N[C@@H](CCc3cc(F)c(C(F)(F)F)c(F)c3)C(=O)N2C1 [PP2048]
[1]
  NRAS /KRAS: A (a compound having 10 or more and less than 20 is denoted as A)
HRAS wild-type protein
  HRAS /KRAS: B (a compound having 3 or more and less than 10 is denoted as B)
[2]
  IC50: 3.6 nM

## CCO[C@@H]1C[C@H]2C(=O)NC3(CC(C)(C)C3)C(=O)N(C)[C@@H](C3CCCC3)C(=O)N(C)[C@H](C(=O)N(C)C)CC(=O)N(C)[C@@H](CC)C(=O)N[C@@H]([C@@H](C)CC)C(=O)N(C)CC(=O)N(C)[C@H]3C/C=C\CCN(C3=O)[C@@H](Cc3ccc(C(F)F)cc3)C(=O)N(C)CC(=O)N[C@@H](CCc3cc(F)c(C(F)(F)F)c(F)c3)C(=O)N2C1 [PP2049]
[1]
  NRAS /KRAS: A (a compound having 10 or more and less than 20 is denoted as A)
HRAS wild-type protein
  HRAS /KRAS: B (a compound having 3 or more and less than 10 is denoted as B)
[2]
  IC50: 6.1 nM

## C=CCN1CC(=O)N(C)[C@H]2C/C=C\CCN(C2=O)[C@@H](Cc2ccc(C)cc2)C(=O)N(C)CC(=O)N[C@@H](CCc2cc(F)c(C(F)(F)F)c(F)c2)C(=O)N2C[C@H](OCC)C[C@H]2C(=O)NC2(CC(C)(C)C2)C(=O)N(C)[C@@H](C2CCCC2)C(=O)N(C)[C@H](C(=O)N(C)C)CC(=O)N(C)[C@@H](CC(C)C)C(=O)N[C@@H]([C@@H](C)CC)C1=O [PP2050]
[1]
  NRAS /KRAS: A (a compound having 10 or more and less than 20 is denoted as A)
HRAS wild-type protein
  HRAS /KRAS: A (a compound having 10 or more and less than 20 is denoted as A)
[2]
  IC50: 7.5 nM

## C#CC[C@H]1C(=O)N[C@@H]([C@@H](C)CC)C(=O)N(C)CC(=O)N(C)[C@H]2C/C=C\CCN(C2=O)[C@@H](Cc2ccc(C(F)(F)F)cc2)C(=O)N(C)CC(=O)N[C@@H](CCc2ccc(C(F)(F)F)c(OC)c2)C(=O)N2C[C@H](OCC)C[C@H]2C(=O)NC2(CC(C)(C)C2)C(=O)N(C)[C@@H](C2CCCC2)C(=O)N(C)[C@H](C(=O)N(C)CC)CC(=O)N1C [PP2051]
[1]
  NRAS /KRAS: A (a compound having 10 or more and less than 20 is denoted as A)
HRAS wild-type protein
  HRAS /KRAS: A (a compound having 10 or more and less than 20 is denoted as A)
[2]
  IC50: 6.9 nM

## C#CCN1CC(=O)N(C)[C@H]2C/C=C\CCN(C2=O)[C@@H](Cc2ccc(C)cc2)C(=O)N(C)CC(=O)N[C@@H](CCc2cc(F)c(C(F)(F)F)c(F)c2)C(=O)N2C[C@H](OCC)C[C@H]2C(=O)NC2(CC(C)(C)C2)C(=O)N(C)[C@@H](C2CCCC2)C(=O)N(C)[C@H](C(=O)N(C)C)CC(=O)N(C)[C@@H](CC(C)C)C(=O)N[C@@H]([C@@H](C)CC)C1=O [PP2052]
[1]
  NRAS /KRAS: A (a compound having 10 or more and less than 20 is denoted as A)
HRAS wild-type protein
  HRAS /KRAS: A (a compound having 10 or more and less than 20 is denoted as A)
[2]
  IC50: 4.1 nM

## C#CC[C@H]1C(=O)N[C@@H]([C@@H](C)CC)C(=O)N(C)CC(=O)N(C)[C@H]2C/C=C\CCN(C2=O)[C@@H](Cc2ccc(C(F)(F)F)cc2)C(=O)N(C)CC(=O)N[C@@H](CCc2ccc(C(F)(F)F)c(OC)c2)C(=O)N2C[C@H](OCC)C[C@H]2C(=O)NC2(CC(C)(C)C2)C(=O)N(C)[C@@H](C2CCCC2)C(=O)N(C)[C@H](C(=O)N(C)CCC)CC(=O)N1C [PP2053]
[1]
  NRAS /KRAS: A (a compound having 10 or more and less than 20 is denoted as A)
HRAS wild-type protein
  HRAS /KRAS: A (a compound having 10 or more and less than 20 is denoted as A)
[2]
  IC50: 9.3 nM

## C#CC[C@H]1C(=O)N[C@@H]([C@@H](C)CC)C(=O)N(C)CC(=O)N(C)[C@H]2C/C=C\CCN(C2=O)[C@@H](Cc2ccc(C(F)(F)F)cc2)C(=O)N(C)CC(=O)N[C@@H](CCc2ccc(C(F)(F)F)c(OC)c2)C(=O)N2C[C@@H](C)C[C@H]2C(=O)NC2(CC(C)(C)C2)C(=O)N(C)[C@@H](C2CCCC2)C(=O)N(C)[C@H](C(=O)N(C)CC)CC(=O)N1C [PP2055]
[1]
  NRAS /KRAS: A (a compound having 10 or more and less than 20 is denoted as A)
HRAS wild-type protein
  HRAS /KRAS: B (a compound having 3 or more and less than 10 is denoted as B)
[2]
  IC50: 16.1 nM
